Row | SMILES | logP
1 | CCNc1cc(-c2nc(N)n[nH]2)ccn1 | 1.13
2 | Nc1cc(-c2nnc(N)[nH]2)ccn1 | 0.11
3 | Nc1nc(-c2ccnc(NCCCc3ccccc3)c2)n[nH]1 | 3.05
4 | Nc1nc(-c2ccnc(NCCc3ccccc3)c2)n[nH]1 | 2.63
5 | CCCCCCCCCCNc1cc(-c2nnc(N)[nH]2)ccn1 | 4.07
6 | CNc1cc(-c2n[nH]c(N)n2)ccn1 | 0.69
7 | CCCCCCNc1cc(-c2n[nH]c(N)n2)ccn1 | 3.3
8 | CCCCNc1cc(-c2n[nH]c(N)n2)ccn1 | 2.15
9 | Nc1n[nH]c(-c2ccnc(NCCO)c2)n1 | 0.24
10 | CCCNc1cc(-c2nnc(N)[nH]2)ccn1 | 1.61
11 | C=CCNc1cc(-c2nc[nH]n2)ccn1 | 1.26
12 | Cc1ccc(CNc2cc(-c3n[nH]c(N)n3)ccn2)cc1 | 2.69
13 | COCCNc1cc(-c2nnc(N)[nH]2)ccn1 | 0.94
